From patent US20020164367A1, “Botanical drug for increasing immunity and decreasing side effects of chemotherapy” (priority 2001, published 2002)

Legend:
[1] = test system: chick myocardial cell; assay: Survival rate of chick myocardial cells after Adriamycin induced damage (ABC immunoperoxidase staining); format: cell-based; details: Adriamycin 10μ for 24 hours after 4 days in culture; BDI 150 μg/ml
Method: Hears were removed from 11 days embryos and were dissociated at 37 C. for 45 minutes with 0.25% trypsin (sigma, type III), 0.025% collagenase (sigma, type I), and 0.005% pancreatin (NBCO) prepared in calcium and magnesium free saline G containing 4% chicken serum. Then the tissue was dispersed into a single cell suspension in culture medium containing 5 g/ml DNAse I (sigma). Viable cell counts were determined by hemocyometer counting. Cells were dispersed into 60 mm culture disher (surface area 2000 mm^2) at densities of 200 cells/mm^2.
Cultures were maintained in Ham's F-12K cln^− modified and supplemented with 5% fetal bovine serum. Tissue culture plates were incubated under at constant 5% CO2 and 95% air at 37° C. Cells counted—all cells were counted in 20 randomly selected fields across the entire dish. A Zeiss microscope 25× objective having a field of view of 0.32 mm^2 was used for cell counting.
Monoclonal antibodies (diluted 1:1000 in PBS/BSA) were used. Immunostaining procedure used modified method of immunoperoxidase staining as follows.
Culture plates were added antibody of cardiac myosin before 3 hours for staining. Then culture plates continuous incubated 3 hours at 37° C.
Cell determined by recording the color and the number of microscopic fields (250×). Normal cells were light green and dead cells were brown or very dark green. […]

[2] = test system: host cell; details: by weight; cited from earlier work
[3] = test system: DNA viruses; details: by weight; cited from earlier work
[4] = test system: peritoneal macrophage; details: macrophages with phagocytized chick red blood cells per 100 macrophages; BDI 5.5 mg/kg ip daily for 5 days; cyclophosphamide 4.5 mg/kg ip
Method: Male mice weight 18-20 g were used in the experiments and were divided into treated (BDI) and control groups. The dosage of BDI was 5.5 mg/kg injected intraperitoneally. The control mice were injected with same volume of normal saline. These injections were repeated daily for 5 days, both treated and control group were injected intraperitoneally with cyclosphosphamide.
Added 0.02 ml of 5% washed chick red blood cell suspension to 0.5 ml of the peritoneal exudates. Shook gently to mix and incubate at 37° C. for 5 minutes. Dipped two cover slips, closed to each other, in the above mixture and incubated for 30 minutes for the migration of the macrophages along the cover slips, fixed and stained with Sharma stain. Examined microscopically for:
Phagocytic rate—number of macrophages with phagocytized chick red blood cells per 100 macrophages counted.

[5] = test system: white blood cells; details: rats, 10 days of treatment
[6] = test system: Interleukin-2 (rIL-2); assay: Effect of BDI on Interleukin-2 (rIL-2); format: in vivo; details: n=10
Description: The methods of determination rIL-2 were regular.

[7] = test system: bone marrow stem cells (CFU-S); details: mice, n=10
[8] = test system: lymphocytes; details: 3H-TdR 1 μCi/ml, PHA stimulated
Method: 0.2 ml of formic acid was then added for digestion till the precipitate was dissolved.

## COc1cccc2c1C(=O)c1c(O)c3c(c(O)c1C2=O)C[C@@](O)(C(=O)CO)C[C@@H]3O[C@H]1C[C@H](N)[C@H](O)[C@H](C)O1 [Adriamycin]
[1]
  Survival rate (living/taotalx 100%): 36.0 ± 0.25 (*20) %

## Nc1ccn([C@@H]2O[C@H](CO)[C@@H](O)[C@@H]2O)c(=O)n1 [Cytarabine]
[2]
  Toxicity for host cell relative to Idoxuridine: 10 times
[3]
  Effectiveness relative to Idoxuridine: about 10 times

## O=P1(N(CCCl)CCCl)NCCCO1 (centres unmarked) [Cyclophosphamide]
[4]
  Phagocytic (rate ± SD): 8.5 ± 0.90
[5]
  White blood cells x 10^3/cm^3 ± SD: 6.0 ± 0.70 10^3/cm^3
[6]
  IL-2 (U/ml) ± SD: 47.5 ± 5.5 U/ml
[7]
  Mean (CFU-S ± SD): 7.6 ± 0.8
[8]
  CPM ± SD (lymphoblastoid transformation): 600 ± 65 CPM
